Results reported in patent publication US9133157B2, “HIV protease inhibitors” (Merck Canada Inc., priority 2011, dated 2015).

Molecular target: WT HIV-1 protease (Human immunodeficiency virus type 1 group M subtype B (isolate HXB2) (HIV-1), UniProt P04585)
Test: Assay for inhibition of microbial expressed HIV protease (Procedure A, peptide substrate, HPLC fluorescence detection)
Format: biochemical
Conditions: WT HIV-1 protease 10 pM, substrate 400 micromolar, pH 5.5, 30 min preincubation, 1 hour at 30° C.; read-out: Enzyme inhibition IC50
Summary of the method: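 E. coli-expressed enzyme preincubated 30 min at room temperature with compound in 50 mM sodium acetate pH 5.5, 100 mM NaCl, 0.1% BSA. Reaction ran 1 h at 30° C with 400 micromolar Val-Ser-Gln-Asn-(betanaphthyl)Ala-Pro-Ile-Val substrate and 10 picomolar protease. After phosphoric acid quench, product was measured by C18 HPLC with fluorescence (ex 270/em 330 nm).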

| Compound | IC50 |
| --- | --- |
| COC(=O)N[C@H](C(=O)N[C@H](c1ccc([C@@H](CO)N(CCC(F)(F)F)S(=O)(=O)c2ccc(N)cc2)s1)C(F)(F)F)C(c1ccccc1)c1ccccc1 [Example 85, N-[(1S)-1-{5-[(1R)-1-{[(4-aminophenyl)sulfonyl](3,3,3-trifluoropropyl)amino}-2-hydroxyethyl]thiophen-2-yl}-2,2,2-trifluoroethyl]-Nα-(methoxycarbonyl)-β-phenyl-L-phenylalaninamide] | 0.33 nM |
| COC(=O)N[C@H](C(=O)N[C@H](c1ccc([C@@H](CO)N(C(C)C)S(=O)(=O)c2ccc(CO)cc2)s1)C(F)(F)F)C(c1ccccc1)c1ccccc1 [Example 65, Nα-(methoxycarbonyl)-β-phenyl-N-[(1S)-2,2,2-trifluoro-1-(5-{(1R)-2-hydroxy-1-[{[4-(hydroxymethyl)phenyl]sulfonyl}(propan-2-yl)amino]ethyl}thiophen-2-yl)ethyl]-L-phenylalaninamide] | 0.18 nM |
| COC(=O)N[C@H](C(=O)N[C@H](c1ccc([C@@H](CO)N(CCC(C)(C)C)S(=O)(=O)c2ccc(N)c(F)c2)s1)C(F)(F)F)C(c1ccccc1)c1ccccc1 [Example 97, N-[(1S)-1-{5-[(1R)-1-{[(4-amino-3-fluorophenyl)sulfonyl](3,3-dimethylbutyl)amino}-2-hydroxyethyl]thiophen-2-yl}-2,2,2-trifluoroethyl]-Nα-(methoxycarbonyl)-β-phenyl-L-phenylalaninamide] | 1.23 nM |
| COC(=O)N[C@H](C(=O)NCc1ccc(C(CO)N(Cc2cc3ccccc3[nH]2)S(=O)(=O)c2ccc3scnc3c2)s1)C(c1ccccc1)c1ccccc1 (stereo partly shown) [Example 24] | 13.6 nM |
| N-{(1S)-1-[5-((1R)-1-{(3,3-dimethylbutyl)[4-(1-methyl-1H-pyrazol-4-ylphenylsulfonyl]amino}-2-hydroxyethyl)-2-thienyl]-2,2,2-trifluoroethyl}-Nα-(methoxycarbonyl)-β-phenyl-L-phenylalaninamide [Example 115] | 20.9 nM |
| [2H]C([2H])([2H])C([2H])(N([C@H](CO)c1ccc([C@@H](NC(=O)[C@@H](NC(=O)OC)C(c2ccccc2)c2ccccc2)C(F)(F)F)s1)S(=O)(=O)c1ccc2[nH]ncc2c1)C([2H])([2H])[2H] [Example 107, Nα-(methoxycarbonyl)-β-phenyl-N-[(1S)-2,2,2-trifluoro-1-{5-[(1R)-2-hydroxy-1-1(1H-indazol-5-ylsulfonyl)[(2-^2H)propan-2-yl]amino}ethyl]thiophen-2-yl}ethyl-L-phenylalaninamide] | 23.4 nM |
| COC(=O)N[C@H](C(=O)N[C@@H](c1ccc([C@@H](CO)N(CC(C)C)S(=O)(=O)c2ccc(N)cc2)s1)C(F)(F)F)C(c1ccccc1)c1ccccc1 [Example 61, N-[(1R)-1-{5-[(1R)-1-{[(4-aminophenyl)sulfonyl](2-methylpropyl)amino}-2-hydroxyethyl]thiophen-2-yl}-2,2,2-trifluoroethyl]-Nα-(methoxycarbonyl)-β-phenyl-L-phenylalaninamide] | 23 nM |
| CC(C)CN(C(CO)c1ccc(CNC(=O)C(NC(=O)c2ccccc2)C(c2ccccc2)c2cccc3ccncc23)s1)S(=O)(=O)c1ccc2ncsc2c1 (stereo not shown) [Example 129, N-[1-[[5-[1-(1,3-benzothiazol-6-ylsulfonyl(isobutyl)amino)-2-hydroxy-ethyl]-2-thienyl]methylcarbamoyl]-2-(8-isoquinolyl)-2-phenyl-ethyl]benzamide] | 7 nM |
| COC(=O)N[C@H](C(=O)N[C@H](c1ccc([C@@H](CO)N(CCC(C)(C)C)S(=O)(=O)c2ccc3cn[nH]c3c2)s1)C(F)(F)F)C(c1ccccc1)c1ccccc1 [Example 102, N-[(1S)-1-(5-{(1R)-1-[(3,3-dimethylbutyl)(1H-indazol-6-ylsulfonyl)amino]-2-hydroxyethyl}thiophen-2-yl)-2,2,2-trifluoroethyl]-Nα-(methoxycarbonyl)-β-phenyl-L-phenylalaninamide] | 0.63 nM |
| COC(=O)N[C@H](C(=O)NCc1ccc([C@H](CO)N(Cc2ccnc(OC)c2)S(=O)(=O)c2ccc3scnc3c2)s1)C(c1ccccc1)c1ccccc1 [Example 29] | 106 nM |
| COC(=O)N[C@H](C(=O)NCc1ccc(C(CO)N(Cc2cnn(S(=O)(=O)N(C)C)c2)S(=O)(=O)c2ccc3scnc3c2)s1)C(c1ccccc1)c1ccccc1 (stereo partly shown) [Example 30] | 5.13 nM |
| CC(C)CN(C(CO)c1ccc(CNC(=O)C(NC(=O)c2ccccc2)C(c2ccccc2)c2cn(C)c3ccccc23)s1)S(=O)(=O)c1ccc2ncsc2c1 (stereo not shown) [Example 127, N-[1-[[5-[1-(1,3-benzothiazol-6-ylsulfonyl(isobutyl)amino)-2-hydroxy-ethyl]-2-thienyl]methylcarbamoyl]-2-(1-methylindol-3-yl)-2-phenyl-ethyl]benzamide] | 8 nM |
| COC(=O)N[C@H](C(=O)N[C@H](c1ccc([C@@H](CO)N(CCC(C)(C)C)S(=O)(=O)c2ccc(CO)cc2)s1)C(F)(F)F)C(c1ccccc1)c1ccccc1 [Example 53, N-[(1S)-1-(5-{(1R)-1-[(3,3-dimethylbutyl){[4-(hydroxymethyl)phenyl]sulfonyl}amino]-2-hydroxyethyl}thiophen-2-yl)-2,2,2-trifluoroethyl]-Nα-(methoxycarbonyl)-β-phenyl-L-phenylalaninamide] | 0.156 nM |
| COC(=O)N[C@H](C(=O)NCc1ccc([C@H](CO)N(CC(C)C)S(=O)(=O)c2ccc3scnc3c2)s1)C(c1ccccc1)c1ccccc1 [Example 23] | 60.9 nM |
| COC(=O)N[C@H](C(=O)N[C@H](c1ccc([C@@H](CO)N(CCC(C)(C)C)S(=O)(=O)c2ccc(-n3nccn3)cc2)s1)C(F)(F)F)C(c1ccccc1)c1ccccc1 [Example 112] | 73.5 nM |
| COC(=O)N[C@H](C(=O)N[C@H](c1ccc([C@@H](CO)N(C(C)C)S(=O)(=O)c2ccc3cn[nH]c3c2)s1)C(F)(F)F)C(c1ccccc1)c1ccccc1 [Example 81, Nα-(methoxycarbonyl)-β-phenyl-N-[(1S)-2,2,2-trifluoro-1-(5-{(1R)-2-hydroxy-1-[(1H-indazol-6-ylsulfonyl)(propan-2-yl)amino]ethyl}thiophen-2-yl)ethyl]-L-phenylalaninamide] | 74.1 nM |
| COC(=O)N[C@H](C(=O)NCc1ccc([C@@H](CO)N(CC(C)C)S(=O)(=O)c2ccc3ncsc3c2)s1)C(c1ccccc1)c1ccccc1 [Example 123, N-[(5-{(1R)-1-[(1,3-benzothiazol-6-ylsulfonyl)(2-methylpropyl)amino]-2-hydroxyethyl}thiophen-2-yl)methyl]-Nα-(methoxycarbonyl).-β-phenyl-L-phenylalaninamide] | 6.3 nM |
| COC(=O)N[C@H](C(=O)N[C@H](c1ccc([C@@H](CO)N(CCC(C)(C)C)S(=O)(=O)c2ccc(CO)c(C(F)(F)F)c2)s1)C(F)(F)F)C(c1ccccc1)c1ccccc1 [Example 56, N-[(1S)-1-(5-{(1R)-1-[(3,3-dimethylbutyl){[4-(hydroxymethyl)-3-(trifluoromethyl)phenyl]sulfonyl}amino]-2-hydroxyethyl}thiophen-2-yl)-2,2,2-trifluoroethyl]-Nα-(methoxycarbonyl)-β-phenyl-L-phenylalaninamide] | 59.4 nM |
| COC(=O)N[C@H](C(=O)NCc1csc(C(CO)N(CCC(C)C)S(=O)(=O)c2ccccc2)c1)C(c1ccccc1)c1ccccc1 (stereo partly drawn) [Example 1, N-[(5-{2-hydroxy-1-[(3-methylbutyl)(phenylsulfonyl)amino]ethyl}thiophen-3-yl)methyl]-Nα-(methoxycarbonyl)-β-phenyl-L-phenylalaninamide] | 72.8 nM |
